According to article PMC7897990, “TriTOX: A novel Trichomonas vaginalis assay platform for high-throughput screening of compound libraries” (International Journal for Parasitology: Drugs and Drug …, 2021):
Read-outs that look alike come from different tables or passages of the source. Starred links: 1 amine or outer side, 2 acyl side, 3 side chain; linkers in the order of their positions; H or OH if unused. Positions of bridges follow the written chain, without caps; N, C: chain ends. Non-standard residues stand in square brackets, D forms with d. Residues, ends and D or L forms follow the SMILES beside them. Chains are numbered I, II in the order given. *: point of attachment. Actinocin(9to1) = Cc1c2oc3c(C)ccc(C(=O)[*:1])c3nc-2c(C(=O)[*:2])c(N)c1=O; Orn(4R-OH,5R-OH) = O=C([C@H](C[C@@H](O)[C@@H](O)N[*:3])N[*:1])[*:2]; Tetradecanoyl(10R,12S-Me2) = CC[C@H](C)C[C@H](C)CCCCCCCCC(=O)*; hTyr(3S-OH,4S-OH) = N[C@H](C(=O)O)[C@H](O)[C@@H](O)c1ccc(O)cc1; Gln(3R-OH) = NC(=O)C[C@@H](O)[C@H](N)C(=O)O; Pro(3S-OH) = O=C(O)[C@H]1NCC[C@@H]1O; Hyp = O=C(O)[C@@H]1C[C@@H](O)CN1; NMeV = CN[CH](C(=O)O)C(C)C; Sar = CNCC(=O)O

Assays:
[1] = system: Trichomonas vaginalis G3 trophozoites; conditions: parasite screen 1 µg/mL
[2] = system: nontumorigenic neonatal foreskin fibroblast (NFF) cell line; conditions: NFF_NS1 screen 5 µg/mL, single concentration
[3] = HTS single concentration, replicate 1
[4] = HTS single concentration, replicate 2

SMILES	T.vaginalis_%inb_Rep1 [1, 3] [%]	T.vaginalis_%inb_Rep2 [1, 4] [%]	NFF_Activity [2]	T.vaginalis_%inb_Rep1 ([1]; HTS replicate 1) [%]	T.vaginalis_%inb_Rep2 ([1]; HTS replicate 2) [%]
CCC(=O)CCCCCC1NC(=O)C2CCCCN2C(=O)C(C(C)CC)NC(=O)C(Cc2cn(OC)c3ccccc23)NC1=O (centres unmarked) [BIA-A1006]	13.25	17.28	I (otherwise these were reported as inactive (I))	–	–
COC(=O)c1cc(O)cc(OC)c1Oc1cc(C)cc(O)c1C(=O)O [BIA-A1008]	16.05	13.59	I (otherwise these were reported as inactive (I))	–	–
COc1oc([C@H]2C/C(=C/C(C)=C/c3ccc([N+](=O)[O-])cc3)CO2)c(C)c(=O)c1C [BIA-A1009]	12.82	5.78	I (otherwise these were reported as inactive (I))	–	–
CC[C@H](C)[C@H]1O[C@]2(C=C[C@@H]1C)C[C@@H]1C[C@@H](C/C=C(\C)[C@@H](O[C@H]3C[C@H](OC)[C@@H](O[C@H]4C[C@H](OC)[C@@H](O)[C@H](C)O4)[C@H](C)O3)[C@@H](C)/C=C/C=C3\CO[C@@H]4[C@H](O)C(C)=C[C@@H](C(=O)O1)[C@]34O)O2 [BIA-A1010]	14.32	14.17	I (otherwise these were reported as inactive (I))	–	–
CO[C@H]1C[C@H](O[C@H]2[C@H](C)O[C@@H](O[C@@H]3/C(C)=C/C[C@@H]4C[C@@H](C[C@]5(C=C[C@H](C)[C@@H](C(C)C)O5)O4)OC(=O)[C@@H]4C=C(C)[C@@H](O)[C@H]5OC/C(=C\C=C\[C@@H]3C)[C@]54O)C[C@@H]2OC)O[C@@H](C)[C@@H]1O [BIA-A1011]	14.65	18.51	I (otherwise these were reported as inactive (I))	–	–
CC(/C=C/[C@@]1(C)[C@H](C)CCC(=O)[C@@H]1C)=C\Cc1c(O)c(Cl)c(C)c(C=O)c1O [BIA-A1115]	16.42	18.08	I (otherwise these were reported as inactive (I))	–	–
CCC(=O)Nc1c2sscc-2n(C)c1=O [BIA-A1120]	100.00	82.07	A (active (A) compounds having >25% inhibitory activity)	–	–
Cc1c2oc3c(C)ccc(C(=O)NC4C(=O)NC(C(C)C)C(=O)N5CCCC5C(=O)N(C)CC(=O)N(C)C(C(C)C)C(=O)OC4C)c3nc-2c(C(=O)NC2C(=O)NC(C(C)C)C(=O)N3CCCC3C(=O)N(C)CC(=O)N(C)C(C(C)C)C(=O)OC2C)c(N)c1=O (centres unmarked) [BIA-A1185] (I: TVP[Sar][NMeV] / II: TVP[Sar][NMeV]; ester I:1-I:C, II:1-II:C; linker I:N-II:N via Actinocin(9to1); configuration not given here)	0.00	40.20	I (otherwise these were reported as inactive (I))	–	–
COc1ccc(C[C@H]2NC[C@H](O)[C@H]2OC(C)=O)cc1 [BIA-A1215]	63.76	97.54	I (otherwise these were reported as inactive (I))	–	–
CC1OC(OC2C(CO)OC(OC3C(CO)OC(O)C(O)C3O)C(O)C2O)C(O)C(O)C1NC1C=C(CO)C(O)C(O)C1O (centres unmarked) [BIA-A1231]	14.16	6.22	I (otherwise these were reported as inactive (I))	–	–
CC(=O)OC[C@@]1(C)[C@@H]2C[C@H](OC(C)=O)[C@@]3(C)Oc4cc(-c5ccccc5)oc(=O)c4[C@H](O)[C@@H]3[C@@]2(C)CC[C@@H]1OC(C)=O [Phenylpyropene A]	–	–	–	13.03	14.11
Cc1ncc(-c2c[nH]c3ccccc23)o1 [Pimprinine]	–	–	–	11.61	11.80
CN(C)C1C(=O)C(C(=O)NCN2CCN(CCO)CC2)=C(O)C2(O)C(=O)C3=C(O)c4c(O)cccc4C(C)(O)C3CC12 (centres unmarked) [Pipacycline]	–	–	–	11.66	12.19
Cn1c(=O)c(=Cc2ccccc2)[nH]c(=O)c1=Cc1ccccc1 [Piperafizine A]	–	–	–	11.87	11.10
CC[C@@H]1CCN[C@H](C(=O)N[C@@H]([C@H]2O[C@H](SC)[C@H](O)[C@@H](O)[C@H]2O)[C@H](C)Cl)C1 [Pirlimycin]	–	–	–	5.02	5.77
COc1cc(CC2C(=O)OCC2Cc2ccc3c(c2)OCO3)ccc1O (centres unmarked) [Pluviatolide]	–	–	–	12.12	14.37
CC[C@H](C)C[C@H](C)CCCCCCCCC(=O)N[C@H]1C[C@@H](O)[C@@H](O)NC(=O)[C@@H]2[C@@H](O)CCN2C(=O)[C@H]([C@H](O)CC(N)=O)NC(=O)[C@H]([C@H](O)[C@@H](O)c2ccc(O)cc2)NC(=O)[C@@H]2C[C@@H](O)CN2C(=O)[C@H]([C@@H](C)O)NC1=O [Pneumocandin B0] ({Tetradecanoyl(10R,12S-Me2)}-[Orn(4R-OH,5R-OH)]T[Hyp][hTyr(3S-OH,4S-OH)][Gln(3R-OH)][Pro(3S-OH)]; lactam 1-C)	–	–	–	10.50	8.92
CCC(O)C(C)(O)C1OC(=O)C(C)C(OC2CC(C)(OC)C(O)C(C)O2)C(C)C(OC2OC(C)CC(N(C)C)C2O)C2(C)CC(C)=C(O2)C1C (centres unmarked) [Pseudoerythromycin A enol ether]	–	–	–	13.84	5.58
CN1CCC2(c3cccc4c3NC3N(C)CCC43c3cccc4c3NC3N(C)CCC43C34CCN(C)C3Nc3c(C56CCN(C)C5Nc5ccccc56)cccc34)c3ccccc3NC12 (centres unmarked) [Psychotridine]	–	–	–	9.23	6.15
O=c1c2cccn2c(=O)c2cccn12 [Pyrocoll]	–	–	–	15.47	11.29
